Data set [1] deals with T1, Hydroxy-3-methyl-glutaryl-CoA reductase (HMGR) (Homo sapiens, UniProt P04035).
T1 sequence (P04035 426-888 limits assumed): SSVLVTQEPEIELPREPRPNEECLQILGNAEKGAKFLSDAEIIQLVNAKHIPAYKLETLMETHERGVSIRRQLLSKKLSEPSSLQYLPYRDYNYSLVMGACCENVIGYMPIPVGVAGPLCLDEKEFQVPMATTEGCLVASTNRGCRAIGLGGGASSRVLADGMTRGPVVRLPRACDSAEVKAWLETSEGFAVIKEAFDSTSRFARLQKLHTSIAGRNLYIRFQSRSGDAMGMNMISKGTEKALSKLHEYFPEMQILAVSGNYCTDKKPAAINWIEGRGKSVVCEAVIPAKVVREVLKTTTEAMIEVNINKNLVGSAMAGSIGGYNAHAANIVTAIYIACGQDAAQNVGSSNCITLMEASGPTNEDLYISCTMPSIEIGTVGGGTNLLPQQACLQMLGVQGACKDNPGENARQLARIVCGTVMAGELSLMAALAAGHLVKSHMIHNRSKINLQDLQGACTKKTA
The following applies: competitive binding to the cofactor site; cited from earlier work.

The nature of data set [2]: Plasma lipid profile in high-fat diet mice (nutritionally induced hypercholesterolemia model). The class given is in vivo, C57BL/6 mice. The note with it: oral. The method, then:
High fat diet male C57BL/6 mice aged 4-5 weeks and weighing 20-25 g were purchased from Taconic Biosciences, Inc. (Germantown, NY, USA). All animal studies were conducted at the animal facility of the Veteran Affairs Medical Center (VAMC) (Albany, NY, USA) in accordance with institutional guidelines for humane animal treatment and approved by the Institutional Animal Care & Use Committee (IACUC) at VAMC. Animals were maintained under specific pathogen-free conditions and housed under controlled conditions of temperature (20-24° C.) and humidity (60-70%) and 12 h light/dark cycle with ad libitum access to water and food. The mice were grouped into five arms (n=5). Administrated orally to the mice were water for vehicle control (VCtrl), Void nanoparticle (void NP), EGCG (30 mg/kg), Nano EGCG (NP-EGCG) and Nano-targeted EGCG (NPT-EGCG) at 30 mg/kg equivalent EGCG for 3 weeks. Blood was collected from retro-orbital after the 24 h, week 1, week 2 and week 3 treatment to measure the levels of plasma total cholesterol, LDL-C, HDL, free and cholesteryl esters. Animals were humanely sacrificed, and liver tissue was collected. The plasma contents of total cholesterol, LDL-C, HDL-C, free and cholesteryl esters were measured with the Cholesterol-HDL and LDL/VLDL assay kit according to the manufacturer's instructions (Abcam, Boston, MA, USA). Statistical analysis was performed using GraphPad Prism (San Diego, CA, USA) (Wilkinson, 1956). All data are presented as mean±standard deviation of the mean. The Mann-Whitney nonparametric test was used to determine differences in the groups. ***P<0.001, **P<0.01, *P<0.05 were considered as significant.

The conditions of data set [3]: cited from earlier work.
The mark [4] stands for this setting: 30 mg/kg, week 3, compared to vehicle control and void NP.

Like-named read-outs stand apart in the source and are kept apart here.

Results on one substance are retold here after patent US20230414556A1, “NANO-HEPATIC TARGETED EPIGALLOCATECHIN GALLATE IN DYSLIPIDEMIA” (priority 2022, published 2023).

On to (−)-epigallocatechin gallate [EGCG], for which, in data set [1], the “inhibition of in vitro activity of HMGR” value is recorded as “potently inhibits”. The “decrease of plasma total cholesterol” value in data set [2] (30 mg/kg (equivalent) EGCG, week 3, compared to vehicle control and void NP) is recorded as 28%. In data set [2] (30 mg/kg, week 2 and week 3), the “plasma cholesteryl esters (in words)” value is “significant decrease”. Also, in data set [2] (30 mg/kg, week 3), the “decrease in plasma LDL-C” value is on record as 3% and the “increase in plasma HDL-C” value is listed as 10%. In addition, in data set [2] (setting [4]), the “levels of free cholesterol in plasma (in words)” value is “significant decrease”, the “reduction of plasma cholesteryl esters” value stood at 30% and the “reduction of plasma free cholesterol” value was found to be 11%. For the same substance, in data set [3] (acidic solutions (pH<4)), the “stability of EGCG” value was “very stable”. The “stability of EGCG” value in data set [3] (neutral and alkaline solutions) is “extremely unstable and degraded almost completely in a few minutes”.
